Patent US7384927B2, “Alkylated porphyrins as pesticides acting both in the presence and absence of light” (priority 2003, dated 2008)

Columns and labels:
Format in all cases: in vivo
[1] = system: Stomoxis calcitrans (stable fly); assay: Uptake of alkylated porphyrins by flies fed porphyrin-containing bait; details: S. calcitrans
Procedure: (§1) Porphyrins: • a) meso[tri(N-methyl-pyridyl), mono(N-dodecyl-pyridyl)]porphine (abbr.: C12) • b) meso[tri(N-methyl-pyridyl), mono(N-tetradecyl-pyridyl)]porphine (abbr.: C14) • c) meso[tri(N-methyl-pyridyl), mono(N-octadecyl-pyridyl)]porphine (abbr.: C18) Bait: Aqueous solution containing 10% sucrose and 1% autolysed yeast Flies: • a) Ceratitis capitata (fruit fly) age: 1 week; weight: 5-6 mg • b) Bactrocera oleae (olive fly) age: 10 days; weight: 4-4.5 mg • c) Stomoxis calcitrans (stable fly) age: 10 days; weight: 12 mg Irradiation: • a) High pressure halogen lamp, equipped with infrared and UV filters, emission 360-850 nm, operated at intensities in the 760-2,000 μE s^−1m^−2 range • b) Sunlight, mid June at Padua latitude, average intensity of […] μE s^−1m^−2 with minimum and maximum values of 950 and, respectively, 1,380 μE s^−1m^−2
(§2) An appropriate number of flies (50 flies per each experiment) was caged in 115×55×70 mm Plexiglas cages with several holes (ø=0.5 mm) and starved for 36 h. Then, depending on the protocol to be adopted for each specific experiment, the flies were fed with the bait (10% sucrose and 1% autolysed yeast in neutral aqueous solution), which was either porphyrin-free or added with a predetermined concentration of the porphyrin. These flies were then used in the various experimental sessions.
(§3) At predetermined times, the flies were sacrificed by freezing; the dead flies were then homogenized with a Polytron in 10 ml of a 2% aqueous solution of sodium dodecylsulphate (SDS). The suspension was centrifuged for 10 min at 2,000 rpm, the pellet was discarded and known aliquots of the supernatant were diluted by means of a chloroform/methanol binary mixture (1/2, v/v). The porphyrin concentration was measured by reading the fluorescence emitted at wavelengths above 630 nm and interpolating the emission intensity with a calibration plot obtained with known amounts of the porphyrin. The results were expressed as nanomoles of porphyrin recovered per fly.

[2] = system: Bactrocera oleae (olive fly); assay: as above; details: B. oleae
Procedure: as §1, §2, §3

[3] = system: Ceratitis capitata (fruit fly); assay: as above; details: C. capitata
Procedure: as §1, §2, §3

[4] = system: Stomoxis calcitrans (stable fly); assay: Release of alkylated porphyrin from flies after feeding with bait interrupted; details: S. calcitrans, 1.25 μM porphyrin in the bait
Procedure: as §2, §3

[5] = system: Bactrocera oleae (olive fly); assay: as above; details: B. oleae, 1.25 μM porphyrin in the bait
Procedure: as §2, §3

[6] = system: Ceratitis capitata (fruit fly); assay: as above; details: C. capitata, 1.25 μM porphyrin in the bait
Procedure: as §2, §3

Ceratitis capitata flies [7] = assay: Photoinsecticidal action: fly survival after bait and sunlight irradiation; details: 3 μM in bait, 12 h after feeding, survival 1 h after irradiation
Procedure: as §1
The survival was evaluated 1 h after the end of irradiation.
as §2

Ceratitis capitata flies [8] = assay: Insecticidal action in the dark: fly survival after porphyrin bait; details: dark, fed 24 h, survival 12 h after change to porphyrin-free bait
Procedure: For comparison, data obtained with two conventional porphyrins (as those described in WO 97/29637) offered to the insects for 24 h at a 3.0 and 8.1 μmolar concentration in the same bait are also shown. In all cases, the survival was determined 12 hours after changing food supply from a porphyrin-containing to a porphyrin-free bait. […] These flies were then used in the various experimental sessions. […] The number of survivors was evaluated 12 h after switching from administration of a porphyrin-containing bait to a porphyrin-free bait. In none of the experiments was mortality or any apparent toxic effect observed in control flies (flies not fed with porphyrin, see survival at 0 μM porphyrin concentration).

Ceratitis capitata flies [9] = assay: Photoinsecticidal action: fly survival after bait and visible light irradiation (artificial lamp); details: survival 10 h after irradiation
Procedure: as §1
The irradiations were performed for 1 h, then the flies were kept in dim light for monitoring the survival. Control flies were irradiated under identical conditions after feeding with a porphyrin-free bait.
The irradiations were performed for 1 h at a fluence-rate of 1220 μE s^−1m^−2. The survival was evaluated 10 h after the end of irradiation. […] The porphyrins are abbreviated as following: HP: haematoporphyrin; C1: meso-tetra(N-methyl-pyridyl)porphine.
The survival was evaluated 10 h after the end of irradiation.
An appropriate number of flies (50 flies per each experiment) was caged in 115×55×70 mm Plexiglas cages with several holes (ø=0.5 mm) and starved for 36 h. Then, depending on the protocol to be adopted for each specific experiment, the flies were fed with the bait (10% sucrose and 1% autolysed yeast in neutral aqueous solution), which was either porphyrin-free or added with a predetermined concentration of the porphyrin. These flies were then used in the various experimental sessions. […]

[10] = exposure time to bait 3 h, porphyrin in bait 1.24 μM
[11] = exposure time to bait 12 h, porphyrin in bait 1.24 μM
[12] = exposure time to bait 24 h, porphyrin in bait 1.24 μM
[13] = porphyrin concentration in bait 0.75 (μmoles), feeding 24 h
[14] = porphyrin concentration in bait 1.25 (μmoles), feeding 24 h
[15] = porphyrin concentration in bait 2.10 (μmoles), feeding 24 h
[16] = porphyrin concentration in bait 3.50 (μmoles), feeding 24 h
[17] = porphyrin concentration in bait 6.00 (μmoles), feeding 24 h

With `CCCCCCCCCCCC[n+]1ccc(-c2c3nc(c(-c4cc[n+](C)cc4)c4ccc([nH]4)c(-c4cc[n+](C)cc4)c4nc(c(-c5cc[n+](C)cc5)c5ccc2[nH]5)C=C4)C=C3)cc1` [C12, meso[tri(N-methyl-pyridyl), mono(N-dodecyl-pyridyl)]porphine] the “Recoveries (nmoles of porphyrin per fly)” value [1, 10] was 1.4 nmoles of porphyrin per fly, the “Recoveries (nmoles of porphyrin per fly)” value [1, 11] was 3.2 nmoles of porphyrin per fly and the “Recoveries (nmoles of porphyrin per fly)” value [1, 12] was 3.7 nmoles of porphyrin per fly. The “Recoveries (nmoles of porphyrin per fly)” value [1, 13] was 2.5 nmoles of porphyrin per fly, the “Recoveries (nmoles of porphyrin per fly)” value [1, 14] was 3.7 nmoles of porphyrin per fly and the “Recoveries (nmoles of porphyrin per fly)” value [1, 15] was 6.0 nmoles of porphyrin per fly. The “Recoveries (nmoles of porphyrin per fly)” value [1, 16] was 9.0 nmoles of porphyrin per fly, the “Recoveries (nmoles of porphyrin per fly)” value [1, 17] was 9.7 nmoles of porphyrin per fly and the “Recoveries (nmoles of porphyrin per fly)” value [2, 10] was 0.8 nmoles of porphyrin per fly. The “Recoveries (nmoles of porphyrin per fly)” value [2, 11] was 2.6 nmoles of porphyrin per fly, the “Recoveries (nmoles of porphyrin per fly)” value [2, 12] was 3.2 nmoles of porphyrin per fly and the “Recoveries (nmoles of porphyrin per fly)” value [2, 13] was 2.7 nmoles of porphyrin per fly. For the same compound, the “Recoveries (nmoles of porphyrin per fly)” value [2, 14] was 3.2 nmoles of porphyrin per fly, the “Recoveries (nmoles of porphyrin per fly)” value [2, 15] was 6.5 nmoles of porphyrin per fly and the “Recoveries (nmoles of porphyrin per fly)” value [2, 16] was 9.3 nmoles of porphyrin per fly. For the same compound, the “Recoveries (nmoles of porphyrin per fly)” value [2, 17] was 10.6 nmoles of porphyrin per fly, the “Recoveries (nmoles of porphyrin per fly)” value [3, 10] was 1.2 nmoles of porphyrin per fly and the “Recoveries (nmoles of porphyrin per fly)” value [3, 11] was 3.9 nmoles of porphyrin per fly. The “Recoveries (nmoles of porphyrin per fly)” value [3, 12] was 4.1 nmoles of porphyrin per fly, the “Recoveries (nmoles of porphyrin per fly)” value [3, 13] was 2.9 nmoles of porphyrin per fly and the “Recoveries (nmoles of porphyrin per fly)” value [3, 14] was 4.1 nmoles of porphyrin per fly. The “Recoveries (nmoles of porphyrin per fly)” value [3, 15] was 7.3 nmoles of porphyrin per fly, the “Recoveries (nmoles of porphyrin per fly)” value [3, 16] was 9.1 nmoles of porphyrin per fly and the “Recoveries (nmoles of porphyrin per fly)” value [3, 17] was 12.5 nmoles of porphyrin per fly. For the same compound, the “Recoveries (nmoles of porphyrin per fly), release” value ([4]; 12 h after feeding interrupted) was 2.8 nmoles of porphyrin per fly, the “Recoveries (nmoles of porphyrin per fly), release” value ([4]; 24 h after feeding interrupted) was 2.0 nmoles of porphyrin per fly and the “Recoveries (nmoles of porphyrin per fly), release” value ([4]; 48 h after feeding interrupted) was 0.9 nmoles of porphyrin per fly. The “Recoveries (nmoles of porphyrin per fly), release” value ([5]; 12 h after feeding interrupted) was 2.5 nmoles of porphyrin per fly, the “Recoveries (nmoles of porphyrin per fly), release” value ([5]; 24 h after feeding interrupted) was 1.4 nmoles of porphyrin per fly and the “Recoveries (nmoles of porphyrin per fly), release” value ([5]; 48 h after feeding interrupted) was 0.8 nmoles of porphyrin per fly. The “Recoveries (nmoles of porphyrin per fly), release” value ([6]; 12 h after feeding interrupted) was 2.6 nmoles of porphyrin per fly, the “Recoveries (nmoles of porphyrin per fly), release” value ([6]; 24 h after feeding interrupted) was 1.1 nmoles of porphyrin per fly and the “Recoveries (nmoles of porphyrin per fly), release” value ([6]; 48 h after feeding interrupted) was 0.7 nmoles of porphyrin per fly. For the same compound, the “Survival (% of control untreated flies)” value (Ceratitis capitata flies [7]; sunlight (average 1150 μE s^−1m^−2) 15 min) was 33 % of control untreated flies, the “Survival (% of control untreated flies)” value (Ceratitis capitata flies [7]; sunlight (average 1150 μE s^−1m^−2) 30 min) was 17 % of control untreated flies and the “Survival (% of control untreated flies)” value (Ceratitis capitata flies [7]; sunlight (average 1150 μE s^−1m^−2) 45 min) was 10 % of control untreated flies. For the same compound, the “Survival (% of control untreated flies)” value (Ceratitis capitata flies [7]; sunlight (average 1150 μE s^−1m^−2) 60 min) was 2 % of control untreated flies, the “Survival (% of control untreated flies)” value (Ceratitis capitata flies [8]; 0.75 μM in bait) was 100 % of control untreated flies and the “Survival (% of control untreated flies)” value (Ceratitis capitata flies [8]; 1.25 μM in bait) was 73 % of control untreated flies. For the same compound, the “Survival (% of control untreated flies)” value (Ceratitis capitata flies [8]; 2.10 μM in bait) was 58 % of control untreated flies, the “Survival (% of control untreated flies)” value (Ceratitis capitata flies [8]; 3.00 μM in bait) was 42 % of control untreated flies and the “Survival (% of control untreated flies)” value (Ceratitis capitata flies [8]; 5.00 μM in bait) was 38 % of control untreated flies. The “Survival (% of control untreated flies)” value (Ceratitis capitata flies [8]; 8.10 μM in bait) was 35 % of control untreated flies, the “Survival (% of control untreated flies)” value (Ceratitis capitata flies [9]; 3 μM in bait 24 h, time interval feeding-irradiation 0 h, irradiation 1 h at 1220 μE s^−1m^−2) was 4 % of control untreated flies and the “Survival (% of control untreated flies)” value (Ceratitis capitata flies [9]; 3 μM in bait 24 h, time interval feeding-irradiation 12 h, irradiation 1 h at 1220 μE s^−1m^−2) was 8 % of control untreated flies. The “Survival (% of control untreated flies)” value (Ceratitis capitata flies [9]; 3 μM in bait 24 h, time interval feeding-irradiation 24 h, irradiation 1 h at 1220 μE s^−1m^−2) was 23 % of control untreated flies, the “Survival (% of control untreated flies)” value (Ceratitis capitata flies [9]; 3 μM in bait 24 h, time interval feeding-irradiation 48 h, irradiation 1 h at 1220 μE s^−1m^−2) was 37 % of control untreated flies and the “Survival (% of control untreated flies)” value (Ceratitis capitata flies [9]; 3 μM in bait, fluence-rate 760 μE s^−1m^−2, irradiated 24 h after feeding (title)) was 13 % of control untreated flies. For the same compound, the “Survival (% of control untreated flies)” value (Ceratitis capitata flies [9]; 3 μM in bait, fluence-rate 1220 μE s^−1m^−2, irradiated 24 h after feeding (title)) was 4 % of control untreated flies, the “Survival (% of control untreated flies)” value (Ceratitis capitata flies [9]; 3 μM in bait, fluence-rate 1500 μE s^−1m^−2, irradiated 24 h after feeding (title)) was 2 % of control untreated flies and the “Survival (% of control untreated flies)” value (Ceratitis capitata flies [9]; 3 μM in bait, fluence-rate 2000 μE s^−1m^−2, irradiated 24 h after feeding (title)) was 0 % of control untreated flies.
